Data taken from patent US20160115225A1, “Methods of Reducing Methylglyoxal (MGO) Modification of Recombinant Proteins in Cell Culture” (AbbVie Inc., priority 2014, published 2016).

Columns and labels:
[1] = system: adalimumab producing cell line 2; experiment: Lys-C peptide mapping for MGO modification of adalimumab, shake flask culture, cell line 2; type: cell-based; details: Example 5; day 11 harvest; control 1.93%
Description: For shake flask experiments (Example 4), duplicate 500 mL Corning vented non-baffled shake flasks (200 mL working volume) were used for each condition. Similar to the seed train stage, the production stage shake flasks were kept in incubators maintained at 36° C. and 5% CO2 on shaker platforms that were set at 140 rpm.
Typical trypsin digestion for peptide mapping cleaves a denatured, reduced and alkylated protein at the carboxyl side of the two basic amino acids, lysine and arginine. Methylglyoxal (MGO) is a small molecule metabolite derived as a glycolysis byproduct which can modify arginine residues. […] The challenge of quantifying the amount of MGO modified peptide is that, it is not compared to an equivalent non-modified peptide but rather to two parental cleaved peptides. […] In order to determine a truly accurate direct measurement of an MGO-modified peptide, it is compared to its non-modified counterpart and expressed as a percentage. […] The result is a direct comparison of the same peptide with and without an MGO modification, which provides a high degree of accuracy in quantifying even trace levels of the modified species.
Procedure: Samples were dilated to a nominal concentration of 4 mg/mL. […] Samples were analyzed by LC/MS peptide mapping. […] Eluting peaks were monitored using a Thermo Scientific LTQ-Orbitrap Mass Spectrometer. […]

[2] = system: adalimumab producing cell line 1; experiment: Glucose consumption of the culture, cell line 1; type: cell-based; details: Example 3; arginine supplementation 4 g/l
Description: For the bioreactor (3 L Applikon) experiments (Examples 1, 2 and 3), 3 L, bioreactors (1.5 L working volume) were initiated at 35° C. (cell line 1) and 36° C. (cell line 2), 30% DO, 200 rpm, pH of 7.1. In some of the conditions, pH was ramped down to 6.8 in three days and kept at pH 6.8 thereafter. The inclusion of pH ramp for a particular condition is indicated by the final pH in the experimental design. If the final pH is 7.1, then it indicates no pH ramp was performed, whereas if the final pH is 6.8, a pH ramp was performed on day 3 from pH 7.1 to pH 6.8. In some of the conditions, a temperature shift was performed. When temperature shift was performed, the temperature was lowered to 33° C. Again, the conditions where such a temperature shift was performed can be identified from the final temperature in the experimental design. Cultures were run in extended batch mode with the addition of a desired amount of 40% glucose stock solution was fed based on glucose measurements.
To assess if this reduction in MGO modification in the test conditions also corresponded to lower glucose consumption, the specific glucose consumption rate was calculated across the two phases of culture: average over day 0-day 5 and average over day 5-10 (period post temperature shift) (FIG. 4b). The specific glucose consumption rate in the conditions with 2DDG supplementation was lower in both phases. […] In the period post the temperature shift, up to 50% reduction in specific glucose consumption rate relative to that in the control was observed. Thus, a clear correlation has been observed between reduced glucose consumption and the extent of MGO modification of the peptides.
To further assess the applicability of this strategy, the cumulative glucose consumption levels were also evaluated for these conditions in this study (FIG. 6b). This was calculated by using daily glucose concentration measurements via the offline analyzer and by accounting for glucose feeds when added. […]

Row | Structure (SMILES) | MGO modification (total) [1] | glucose consumption [2]
1 | N[C@@H](CO)C(=O)O [Test 1, Serine] | 0.68% | –
2 | N=C(N)NCCC[C@H](N)C(=O)O [arginine, Arginine] | – | no additional reduction
